Results: patent US20250179077A1, “QUINAZOLINE COMPOUNDS AND USES THEREOF AS INHIBITORS OF MUTANT KRAS PROTEINS” (AMGEN INC., priority 2022, published 2025)
Where two headings read alike, the source gives them in different places.

Legend:
[1] = molecular target: His-tagged KRAS G12D protein (Homo sapiens, UniProt P01116, G12D); assay: KRAS G12D TR-FRET Assay; type: binding
Protocol: KRAS G12D TR-FRET Assay Compounds of interest were prepared in a dose-response titration in DMSO, and 80 nL were added via Labcyte Echo to each well of a 384-well plate (Perkin Elmer 6008280). The His-tagged KRAS G12D protein (Amgen) was diluted to 20 nM in Assay Buffer (20 mM HEPES, pH 7.4, 10 mM MgCl2, 50 mM NaCl, 0.1% BSA, 0.01% Tween-20, 10 μM GDP) and 2 uL was added to the appropriate wells of the 384-well plate. The plate was incubated for 30 minutes at room temperature. Biotinylated KRPep-2d substrate (Amgen) was diluted to 20 nM in Assay Buffer and 2 μL was added to all wells and incubated for 1 hour at room temperature. Detection Reagent (0.4 nM LANCE Eu-W1024 Anti-6×-His (Perkin Elmer AD0401), 5 nM streptavidin-d2 (Cisbio 610SADLA)) was prepared in Assay Buffer, then 4 μL was added to the plate and incubated for 1 hour at room temperature. Plates were read using PerkinElmer EnVision (ex: 320 nm, em1: 665 nm, em2: 615 nm) and em1/em2 data was used to generate curve fits using a 4-parameter logistic model to calculate IC50 values.

[2] = molecular target: GDP-bound KRAS protein (aa 1-169), containing both G12D and C118A amino acid substitutions (Homo sapiens, UniProt P01116, C118A/G12D); assay: KRAS G12D Coupled Nucleotide Exchange Assay; type: biochemical
Protocol: KRAS G12D Coupled Nucleotide Exchange Assay
Following compound pre-incubation, purified SOS protein (aa 564-1049) and GTP (Roche 10106399001) were added to the assay wells and incubated for an additional 30 min. […] The assay plates were then read on a PerkinElmer EnVision Multilabel Reader, using AlphaScreen® technology, and data were analyzed using a 4-parameter logistic model to calculate IC50 values.

[3] = tested on: Phosphorylation of ERK1/2 in AsPC-1 cells; assay: Phospho-ERK1/2 MSD Assay; type: cell-based
Protocol: AsPC-1 (ATCC® CRL-1682™) cells were cultured in RPMI 1640 Medium (ThermoFisher Scientific 11875093) containing 10% fetal bovine serum (ThermoFisher Scientific 16000044) and Ix penicillin-streptomycin-glutamine (ThermoFisher Scientific 10378016). Sixteen hours prior to compound treatment, AsPC-1 cells were seeded in 96-well cell culture plates at a density of 25,000 cells/well and incubated at 37° C., 5% CO2. A compound dose-response titration was diluted in growth media, added to appropriate wells of a cell culture plate, and then incubated at 37° C., 5% CO2 for 2 h. Following compound treatment, cells were washed with ice-cold Dulbecco's phosphate-buffered saline, no Ca^2+ or Mg^2+ (ThermoFisher Scientific 14190144), and then lysed in RIPA buffer (50 mM Tris-HCl pH 7.5, 1% Igepal, 0.5% sodium deoxycholate, 150 mM NaCl, and 0.5% sodium dodecyl sulfate) containing protease inhibitors (Roche 4693132001) and phosphatase inhibitors (Roche 4906837001). Phosphorylation of ERK1/2 in compound-treated lysates was assayed using Phospho-ERK1/2 Whole Cell Lysate kits (Meso Scale Discovery K151DWD) according to the manufacturer's protocol. Assay plates were read on a Meso Scale Discovery Sector Imager 6000, and data were analyzed using a 4-parameter logistic model to calculate IC50 values.

[4] = Homo sapiens, ASPC1, 2 h, read-out: 2 h p-ERK (AsPC-1 cells), IC50, AsPC-1 cells, 2 h compound treatment
[5] = read-out: 2 h p-ERK (AsPC-1 cells), IC50, AsPC-1 cells, 2 h compound treatment

His-tagged KRAS G12D protein, sequence (P01116 1-188 isoform P01116-2 G12D): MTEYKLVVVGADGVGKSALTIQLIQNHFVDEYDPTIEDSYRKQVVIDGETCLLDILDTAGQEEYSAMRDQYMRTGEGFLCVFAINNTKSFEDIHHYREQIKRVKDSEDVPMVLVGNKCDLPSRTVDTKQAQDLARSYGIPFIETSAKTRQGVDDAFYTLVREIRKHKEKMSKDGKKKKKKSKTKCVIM
GDP-bound KRAS protein (aa 1-169), containing both G12D and C118A amino acid substitutions, sequence (P01116 1-169 isoform P01116-2 G12D/C118A): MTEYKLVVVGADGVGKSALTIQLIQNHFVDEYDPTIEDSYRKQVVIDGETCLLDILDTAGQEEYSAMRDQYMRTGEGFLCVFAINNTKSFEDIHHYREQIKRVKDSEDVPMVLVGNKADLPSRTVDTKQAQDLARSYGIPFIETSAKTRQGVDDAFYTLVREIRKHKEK

| IC50 [1] | IC50 [2] | IC50 [3, 4] | IC50 [3, 5] | Compound |
| --- | --- | --- | --- | --- |
| 9 nM | 6 nM | 156 nM |  | Cc1cc2[nH]ncc2c(-c2c(F)cc3c(N4CCC[C@@](C)(O)C4)nc(OC[C@@]45CCCN4C[C@H](F)C5)nc3c2F)c1[C@H]1C[C@H]1C (atropisomer, axis not shown; (aS)) [Example 121, (R)-1-((S)-6,8-Difluoro-2-(((2R,7aS)-2-fluorotetrahydro-1H-pyrrolizin-7a(5H)-yl)methoxy)-7-(6-methyl-5-((1S,2R)-2-methylcyclopropyl)-1H-indazol-4-yl)quinazolin-4-yl)-3-methylpiperidin-3-ol bis(2,2,2-trifluoroacetate)] |
| 436 nM | 23 nM | 1930 nM |  | CCc1c(F)ccc2cc(N)cc(-c3c(F)cc4c(N5CCCC(O)(C(F)F)C5)nc(OC[C@@]56CCCN5C[C@H](F)C6)nc4c3F)c12 (stereo partly drawn) [Example 68, 1-(7-(3-Amino-8-ethyl-7-fluoronaphthalen-1-yl)-6,8-difluoro-2-(((2R,7aS)-2-fluorotetrahydro-1H-pyrrolizin-7a(5H)-yl)methoxy)quinazolin-4-yl)-3-(difluoromethyl)piperidin-3-ol] |
| 5 nM | 3 nM | 55 nM |  | CCc1c(F)ccc2cc(O)cc(-c3ccc4c(N5CCC[C@]6(C5)C[C@@H](O)C6)nc(OC[C@@]56CCCN5C[C@H](F)C6)nc4c3F)c12 [Example 87, (2S,4s)-6-(7-(8-Ethyl-7-fluoro-3-hydroxynaphthalen-1-yl)-6,8-difluoro-2-(((2R,7a.S)-2-fluorotetrahydro-1H-pyrrolizin-7a(5H)-yl)methoxy)quinazolin-4-yl)-6-azaspiro[3.5]nonan-2-ol] |
| 6 nM | 5 nM | 87 nM |  | C/C=C\c1c(C)cc2[nH]ncc2c1-c1c(F)cc2c(N3CCC[C@]4(CCO4)C3)nc(OC[C@@]34CCCN3C[C@H](F)C4)nc2c1F (single isomer, unassigned) [Example 114] |
| 5 nM | 4 nM | 55 nM |  | C[C@@H]1C[C@@H]1c1c(Cl)cc2[nH]ncc2c1-c1c(F)cc2c(N3CCC[C@]4(CNC(=O)O4)C3)nc(OC[C@@]34CCCN3C[C@H](F)C4)nc2c1F (relative stereo) [Example 111, (5S)-7-(7-(6-Chloro-5~(2-methylcyclopropyl)-1H-indazol-4-yl)-6,8-difluoro-2-(((2R,7aS)-2-fluorotetrahydro-1H-pyrrolizin-7a(5H)-yl)methoxy)quinazolin-4-yl)-1-oxa-3,7-diazaspiro[4.5]decan-2-one 2,2,2-trifluoroacetate] |
| 15 nM | 6 nM | 13 nM |  | CCc1c(F)ccc2cc(O)cc(-c3ccc4c(N5CCC[C@]6(CNC(=O)O6)C5)nc(OC[C@@]56CCCN5C[C@H](F)C6)nc4c3F)c12 (single isomer, unassigned) [Example 88] |
| 9 nM | 8 nM | 123 nM |  | C[C@@H]1C[C@@H]1c1c(Cl)cc2[nH]ncc2c1-c1ccc2c(N3CCC[C@@](C)(O)C3)nc(OC[C@@]34CCCN3C[C@H](F)C4)nc2c1F (atropisomer, axis not shown; (aS)) [Example 110, (R)-1-((R)-7-(6-Chloro-5-((1S,2R)-2-methylcyclopropyl)-1H-indazol-4-yl)-8-fluoro-2-(((2R,7aS)-2-fluorotetrahydro-1H-pyrrolizin-7a(5H)-yl)methoxy)quinazolin-4-yl)-3-methylpiperidin-3-ol] |

Continued, compound first:

| Compound | IC50 [1] | IC50 [2] | IC50 [3, 4] | IC50 [3, 5] |
| --- | --- | --- | --- | --- |
| CC1(O)COCCN(c2nc(OC[C@@]34CCCN3C[C@H](F)C4)nc3c(F)c(-c4cc(O)cc5ccc(F)c(F)c45)ccc23)C1 (single isomer, unassigned) [Example 31] | 3 nM | 2 nM | 27 nM |  |
| Oc1cc(-c2c(F)cc3c(N4CCCOCC4)nc(OC[C@@]45CCCN4C[C@H](F)C5)nc3c2F)c2ccccc2c1 [Example 10, 4-(6,8-Difluoro-2-(((2R,7aS)-2-fluorotetrahydro-1H-pyrrolizin-7a(5H)-yl)methoxy)-4-(1,4-oxazepan-4-yl)quinazolin-7-yl)naphthalen-2-ol] | 14 nM | 15 nM | 1040 nM |  |
| CCc1c(F)ccc2cc(O)cc(-c3c(F)cc4c(N5CCCC6(CNC(=O)O6)C5)nc(OC[C@@]56CCCN5C[C@H](F)C6)nc4c3F)c12 (single isomer, unassigned) [Example 59] | 21 nM | 8 nM |  | 39 nM |
| CCc1c(F)ccc2cc(O)cc(-c3ccc4c(N5CCCC6(CNC(=O)C6)C5)nc(OC[C@@]56CCCN5C[C@H](F)C6)nc4c3F)c12 (stereo partly drawn) [Example 53, 7-(7-(8-Ethyl-7-fluoro-3-hydroxynaphthalen-1-yl)-8-fluoro-2-(((2R,7aS)-2-fluorotetrahydro-1H-pyrrolizin-7a(5H)-yl)methoxy)quinazolin-4-yl)-2,7-diazaspiro[4.5]decan-3-one] | 3 nM | 7 nM | 251 nM |  |
| CCc1c(F)ccc2cc(O)cc(-c3c(F)cc4c(N5CCCC6(CCO6)C5)nc(OC[C@@]56CCCN5C[C@H](F)C6)nc4c3F)c12 (single isomer, unassigned) [Example 39] | 3 nM | 4 nM |  | 10 nM |
| CCc1c(F)ccc2cc(O)cc(-c3c(O)cc4c(N5CCC[C@@](C)(O)C5)nc(OC[C@@]56CCCN5C[C@H](F)C6)nc4c3F)c12 (single isomer, unassigned) [Example 27] | 1 nM | 1 nM | 18 nM |  |
| CCc1cccc2cc(O)cc(-c3c(F)cc4c(N5CCOCC(C)(O)C5)nc(OC[C@@]56CCCN5C[C@H](F)C6)nc4c3F)c12 (single isomer, unassigned) [Example 33] | 5 nM | 3 nM | 4 nM |  |
| CCc1c(F)ccc2cc(O)cc(-c3c(F)cc4c(N5C[C@H]6CC[C@@H](C5)O6)nc(OC[C@@]56CCCN5C[C@H](F)C6)nc4c3F)c12 (relative stereo) [Example 18, rel-4-(4-((1R,5S)-8-Oxa-3-azabicyclo[3.2.1]octan-3-yl)-6,8-difluoro-2-(((2R,7aS)-2-fluorotetrahydro-1H-pyrrolizin-7a(5H)-yl)methoxy)quinazolin-7-yl)-5-ethyl-6-fluoronaphthalen-2-ol] | 46 nM | 37 nM | 2890 nM |  |
| C#Cc1c(F)ccc2cc(O)cc(-c3ccc4c(N5CC6CC(O)C(C6)C5)nc(OC[C@@]56CCCN5C[C@H](F)C6)nc4c3F)c12 (single isomer, unassigned) [Example 17] | 11 nM | 9 nM | 744 nM |  |
| CCc1c(F)ccc2cc(O)cc(-c3c(F)cc4c(N5CCCC6(CNC(=O)O6)C5)nc(OC[C@@]56CCCN5C[C@H](F)C6)nc4c3F)c12 (single isomer, unassigned) [Example 56] | 24 nM | 8 nM |  | 507 nM |
| CC1(O)COCCN(c2nc(OC[C@@]34CCCN3C[C@H](F)C4)nc3c(F)c(-c4cc(O)cc5ccc(F)c(F)c45)c(F)cc23)C1 (single isomer, unassigned) [Example 32] | 5 nM | 3 nM | 25 nM |  |
| CCc1c(F)ccc2cc(O)cc(-c3c(Cl)cc4c(N5CCC[C@@](C)(O)C5)nc(OC[C@@]56CCCN5C[C@H](F)C6)nc4c3F)c12 [Example 25, (3R)-1-(6-Chloro-7-(8-ethyl-7-fluoro-3-hydroxynaphthalen-1-yl)-8-fluoro-2-(((2R,7aS)-2-fluorotetrahydro-1H-pyrrolizin-7a(5H)-yl)methoxy)quinazolin-4-yl)-3-methylpiperidin-3-ol] | 4 nM | 5 nM | 146 nM |  |
